Some test systems named below: 786-0 renal; COLO 205 colon; EKVX NSCLC; HCC-2998 colon; HCT-116 colon; HOP-62 NSCLC; HS 578T breast; HT29 colon; IGROV1 ovarian; KM12 colon; MALME-3M melanoma; MDA-N; NCI-H226 lung; OVCAR-5 ovarian; RXF 393 renal; SF-268 CNS; SF-295 CNS; SNB-19 CNS; SNB-75 CNS.
Common to all, as to assay: NCI tumour cell line growth inhibition, 48 h

The results in this text go back to PubChem BioAssay (NCI).

Each structure is given as a SMILES string.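 Cultured in 96-well plates, cells were exposed to test compound for 48 hours across five concentrations. TGI is the concentration that stops growth completely.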 Where a SMILES comes first, the peptide text is derived from it. The star is where a group is joined. Fmoc = O=C(OCC1c2ccccc2-c2ccccc21)*; Boc = CC(C)(C)OC(=O)* Some results are limits rather than exact numbers.

Turning to `CC(C)(C)OC(=O)NCCCCC(NC(=O)C(Cc1c[nH]c2ccccc12)NC(=O)OCC1c2ccccc2-c2ccccc21)C(=O)O` (stereo not drawn) (Fmoc-Trp-Lys(Boc)-OH; configuration not given here), the TGI with 786-0 renal, in the assay with COLO 205 colon, with EKVX NSCLC, in the assay on HCC-2998 colon, with HCT-116 colon and in the assay with HOP-62 NSCLC was greater than 100 µM in each case. For the same compound, the TGI in the assay with HS 578T breast was 96.2 µM; in the assay with HT29 colon it was greater than 100 µM; in the assay on IGROV1 ovarian, greater than 100 µM; in the assay on KM12 colon it was greater than 100 µM; in the assay on MALME-3M melanoma, greater than 100 µM; with MDA-N, greater than 100 µM. The TGI in the assay with NCI-H226 lung, in the assay with OVCAR-5 ovarian, with RXF 393 renal, in the assay with SF-268 CNS, in the assay with SF-295 CNS and in the assay with SNB-19 CNS was greater than 100 µM each time. The TGI in the assay on SNB-75 CNS is greater than 100 µM.

For `O=c1ccc2nc3ccc(O)cc3oc-2c1`, the TGI in the assay on 786-0 renal is greater than 79.6 µM; in the assay with COLO 205 colon, 24.9 µM; in the assay on EKVX NSCLC, greater than 100 µM; with HCC-2998 colon, greater than 100 µM; in the assay with HCT-116 colon, greater than 100 µM; in the assay with HOP-62 NSCLC, greater than 100 µM. Moreover, the TGI was greater than 60 µM in the assay on HS 578T breast; greater than 75.9 µM in the assay with HT29 colon; greater than 100 µM in the assay on IGROV1 ovarian; greater than 62.7 µM in the assay on KM12 colon; 8.76 µM in the assay with MALME-3M melanoma; 3.43 µM in the assay on MDA-N. The TGI in the assay on NCI-H226 lung, in the assay with OVCAR-5 ovarian, in the assay with RXF 393 renal, in the assay on SF-268 CNS, in the assay on SF-295 CNS and with SNB-19 CNS was greater than 100 µM throughout. Besides, the TGI in the assay on SNB-75 CNS is 22 µM.

Turning to `Cc1ccc2c(c1)C/C(=C\c1ccccc1C(=O)O)C2=O`, the TGI with 786-0 renal, in the assay with COLO 205 colon, with EKVX NSCLC, in the assay on HCC-2998 colon, in the assay on HCT-116 colon and in the assay with HOP-62 NSCLC was greater than 100 µM in each case. Also, the TGI with HS 578T breast, in the assay on HT29 colon, in the assay with IGROV1 ovarian, with KM12 colon, in the assay on MALME-3M melanoma and with MDA-N was greater than 100 µM each time. For the same compound, the TGI in the assay with NCI-H226 lung, in the assay on OVCAR-5 ovarian, in the assay with RXF 393 renal, in the assay on SF-268 CNS, in the assay on SF-295 CNS and with SNB-19 CNS was greater than 100 µM throughout. Moreover, the TGI in the assay with SNB-75 CNS was greater than 100 µM.

Consider `CCO/N=C(/CC)c1ccc(Br)s1`, for which the TGI with 786-0 renal, with COLO 205 colon, in the assay with EKVX NSCLC, in the assay on HCC-2998 colon, in the assay with HCT-116 colon and with HOP-62 NSCLC was greater than 100 µM each time. Also, the TGI in the assay on HS 578T breast, with HT29 colon, with IGROV1 ovarian, in the assay with KM12 colon, with MALME-3M melanoma and in the assay with MDA-N was greater than 100 µM throughout. The TGI with NCI-H226 lung, in the assay on OVCAR-5 ovarian, with RXF 393 renal, in the assay on SF-268 CNS, with SF-295 CNS and in the assay with SNB-19 CNS was greater than 100 µM throughout. This compound also yielded a TGI with SNB-75 CNS greater than 100 µM.

For `Nc1c(O)c(C(=O)O)cc2ccccc12`, the TGI is 36.4 µM in the assay with 786-0 renal; 64.1 µM with COLO 205 colon; greater than 100 µM in the assay on EKVX NSCLC; greater than 100 µM in the assay on HCC-2998 colon; 32.2 µM with HCT-116 colon; greater than 100 µM with HOP-62 NSCLC. Moreover, the TGI is greater than 100 µM in the assay with HS 578T breast; 31.8 µM with HT29 colon; greater than 100 µM with IGROV1 ovarian; greater than 100 µM in the assay with KM12 colon; 29.6 µM in the assay with MALME-3M melanoma; 32.3 µM in the assay on MDA-N. Moreover, the TGI was 99.8 µM with NCI-H226 lung; 41.2 µM in the assay with OVCAR-5 ovarian; greater than 100 µM with RXF 393 renal; greater than 100 µM in the assay on SF-268 CNS; greater than 100 µM in the assay with SF-295 CNS; greater than 100 µM in the assay on SNB-19 CNS. Moreover, the TGI with SNB-75 CNS was determined as 53.5 µM.

Take `CC(=O)Nc1ccc2c3c(cc(O)c2c1)N(C(=O)CCCCCC(=O)Nc1ccc2c4c(cc(O)c2c1)N(C(=O)OC(C)(C)C)CC4CCl)CC3CCl` (stereo not drawn): the TGI is 10.1 µM in the assay on 786-0 renal; 9.88 µM in the assay with COLO 205 colon; greater than 100 µM with EKVX NSCLC; 3.69 µM in the assay with HCC-2998 colon; 14.4 µM in the assay on HCT-116 colon; 12 µM in the assay with HOP-62 NSCLC. The TGI was greater than 26.9 µM with HS 578T breast; greater than 39.8 µM with HT29 colon; 28.5 µM in the assay on IGROV1 ovarian; 13.6 µM in the assay on KM12 colon; 8.98 µM with MALME-3M melanoma; 3.56 µM in the assay with MDA-N. Besides, the TGI in the assay with NCI-H226 lung was 9.56 µM; in the assay on OVCAR-5 ovarian, 35.5 µM; with RXF 393 renal, 2.69 µM; in the assay with SF-268 CNS, 6.87 µM; with SF-295 CNS, greater than 45.9 µM; in the assay on SNB-19 CNS, greater than 35 µM. The compound also came in with a TGI in the assay on SNB-75 CNS of 5.22 µM.

`Cc1ccc(S(=O)(=O)N/N=C2\CC3C4CCC3C2C4)cc1` (stereo not drawn): the TGI in the assay with 786-0 renal, with COLO 205 colon, with EKVX NSCLC, in the assay with HCC-2998 colon, in the assay with HCT-116 colon and in the assay on HOP-62 NSCLC was greater than 100 µM throughout. Further, the TGI in the assay on HS 578T breast, in the assay with HT29 colon, in the assay with IGROV1 ovarian, with KM12 colon, with MALME-3M melanoma and in the assay with MDA-N was greater than 100 µM each time. Further, the TGI in the assay on NCI-H226 lung, with OVCAR-5 ovarian, in the assay on RXF 393 renal, in the assay with SF-268 CNS, in the assay on SF-295 CNS and with SNB-19 CNS was greater than 100 µM in each case. In the assay on SNB-75 CNS, this compound registered a TGI greater than 100 µM.
